Test results reported in US7288256B1, “T cell epitopes of the major allergens from dermatophagoides (house dust mite)” (Merck Patent GmbH, priority 1991, dated 2007).
Residues, ends and D or L forms follow the SMILES beside them.

Assays:
[1] = pH-stability profile of candidate peptides (percent degradant peak area by HPLC); details: for solution stability in equal concentration combination: 3, 2 and 1 mg/ml per peptide, 24 hours at about 5° C. and about 22° C., common window within pH 6 to pH 8; for stability (in words): single peptide, aqueous buffer, pH 6 to pH 8, development of DPII-22.14
Procedure: The concentration of filtered peptide solutions was determined by HPLC analysis. In this experiment, the solubility of peptide at each pH is defined as the amount of peptide remaining in solution after filtration through a membrane filter having a 0.2 micrometer pore size. The extent of degradation of peptides was estimated by calculating the percent of total degradant peak area over the total peak area.

[2] = pH-solubility profile of candidate peptides (HPLC of filtrate); assay type: physicochemical; details: for solubility thermodynamic at 24 h: at a pH in the pH range of pH 6 to pH 8, 50 mM sodium phosphate, about 22° C.; for solubility (in words, against the superior solubility standard of 3 mg/ml): development of DPII-22.14 from DpII-22
Procedure: Stock solution A: 0.66 g […] of monobasic sodium phosphate monohydrate U.S.P. and 50 mg EDTA disodium dihydrate, U.S.P. were dissolved in 100 mL of WFI. The solution was filtered through a 0.2 micron filter
Stock solution B: 0.71 g […] of dibasic sodium phosphate U.S.P. were disolved in 100 ml WFI. The solution was filtered through a 0.2 micron filter.
Dispersions A and B were sonicated for 2 minutes for good homogeneity. A small volume was pipetted from each dispersion into a labeled eppendoff vial according to the following volume ratio:
The resultant solutions/suspensions were stored in the dark at about 22° C.±2 for 24 hours without agitation. The solutions were filtered and filtrates were analyzed for pH and peptide concentration.

Row | SMILES | solution stability in equal concentration combination [1] | solubility thermodynamic at 24 h [2] [µg/mL] | stability (in words) [1] | solubility (in words, against the superior solubility standard of 3 mg/ml) [2] | stability (in words) ([1]; listed as QLEAVFEANQNTKTAKIEIKASIDGLEV)
1 | CC(C)C[C@H](NC(=O)[C@H](Cc1ccc(O)cc1)NC(=O)[C@H](C)NC(=O)[C@H](CO)NC(=O)[C@H](CCC(=O)O)NC(=O)[C@@H](NC(=O)[C@H](C)NC(=O)[C@H](C)NC(=O)[C@@H](N)C(C)C)[C@@H](C)O)C(=O)N[C@@H](C)C(=O)N[C@@H](Cc1ccc(O)cc1)C(=O)N[C@@H](CCCNC(=N)N)C(=O)N[C@@H](CC(N)=O)C(=O)N[C@H](C(=O)N[C@@H](CO)C(=O)N[C@@H](CC(C)C)C(=O)N[C@@H](CC(=O)O)C(=O)N[C@@H](CC(C)C)C(=O)N[C@@H](CO)C(=O)N[C@@H](CCC(=O)O)C(=O)N[C@@H](CCC(N)=O)C(=O)N[C@@H](CCC(=O)O)C(=O)N[C@@H](CC(C)C)C(=O)N[C@H](C(=O)N[C@@H](CC(=O)O)C(=O)O)C(C)C)[C@@H](C)O [DF I-22.2] (H-VAATESAYLAYRNTSLDLSEQELVD-OH; N-terminus and C-terminus assumed) | acceptable solution stability | > 3000 |  |  | 
2 | CC[C@H](C)[C@H](NC(=O)[C@H](CCC(=O)O)NC(=O)[C@H](C)NC(=O)[C@@H]1CCCN1C(=O)[C@H](C)NC(=O)[C@H](CC(N)=O)NC(=O)CNC(=O)[C@H](CC(N)=O)NC(=O)[C@@H](NC(=O)[C@@H](N)CO)[C@@H](C)CC)C(=O)N[C@@H](CC(=O)O)C(=O)N[C@@H](CC(C)C)C(=O)N[C@@H](CCCNC(=N)N)C(=O)N[C@@H](CCC(N)=O)C(=O)N[C@@H](CCSC)C(=O)N[C@@H](CCCNC(=N)N)C(=O)N[C@H](C(=O)N[C@H](C(=O)N[C@H](C(=O)N1CCC[C@H]1C(=O)N[C@H](C(=O)N[C@@H](CCCNC(=N)N)C(=O)N[C@@H](CCSC)C(=O)N[C@@H](CCC(N)=O)C(=O)O)[C@@H](C)CC)[C@@H](C)O)C(C)C)[C@@H](C)O [DP I-21.2] (H-SINGNAPAEIDLRQMRTVTPIRMQ-OH; N-terminus and C-terminus assumed) | acceptable solution stability | > 3000 |  |  | 
3 | CC(C)[C@H](NC(=O)CNC(=O)[C@H](CCC(=O)O)NC(=O)[C@H](CCC(=O)O)NC(=O)[C@@H](N)CC(=O)O)C(=O)N[C@H](C(=O)N[C@@H](CCC(N)=O)C(=O)N[C@@H](CCC(=O)O)C(=O)N[C@@H](CO)C(=O)N[C@@H](Cc1ccc(O)cc1)C(=O)N[C@@H](Cc1ccc(O)cc1)C(=O)N[C@@H](CCCNC(=N)N)C(=O)N[C@@H](Cc1ccc(O)cc1)C(=O)N[C@H](C(=O)N[C@@H](C)C(=O)N[C@@H](CCCNC(=N)N)C(=O)N[C@@H](CCC(=O)O)C(=O)N[C@@H](CCC(N)=O)C(=O)N[C@@H](CO)C(=O)N[C@@H](CS)C(=O)N[C@@H](CCCNC(=N)N)C(=O)N[C@@H](CCCNC(=N)N)C(=O)N1CCC[C@H]1C(=O)N[C@@H](CC(N)=O)C(=O)N[C@@H](C)C(=O)N[C@@H](CCC(=O)O)C(=O)O)C(C)C)C(C)C [DP I-23.31] (H-DEEGVVQESYYRYVAREQSCRRPNAE-OH; N-terminus and C-terminus assumed) | acceptable solution stability | > 3000 |  |  | 
4 | CC[C@H](C)[C@H](NC(=O)CNC(=O)[C@H](CCC(=O)O)NC(=O)[C@@H](N)CC(=O)O)C(=O)N[C@@H](CCCCN)C(=O)N[C@@H](CC(=O)O)C(=O)N[C@@H](CC(C)C)C(=O)N[C@@H](CC(=O)O)C(=O)N[C@@H](C)C(=O)N[C@@H](Cc1ccccc1)C(=O)N[C@@H](CCCNC(=N)N)C(=O)N[C@@H](Cc1c[nH]cn1)C(=O)N[C@@H](Cc1ccc(O)cc1)C(=O)N[C@@H](CC(=O)O)C(=O)NCC(=O)N[C@@H](CCCNC(=N)N)C(=O)N[C@H](C(=O)N[C@H](C(=O)N[C@H](C(=O)N[C@@H](CCC(N)=O)C(=O)N[C@@H](CCCNC(=N)N)C(=O)N[C@@H](CC(=O)O)C(=O)N[C@@H](CC(N)=O)C(=O)NCC(=O)N[C@@H](Cc1ccc(O)cc1)C(=O)N[C@@H](CCC(=O)O)C(=O)O)[C@@H](C)CC)[C@@H](C)CC)[C@@H](C)O [DP I-26.6] (H-DEGIKDLDAFRHYDGRTIIQRDNGYE-OH; N-terminus and C-terminus assumed) | acceptable solution stability | > 3000 |  |  | 
5 | CC[C@H](C)[C@H](NC(=O)[C@H](CO)NC(=O)[C@H](C)NC(=O)[C@H](CCCCN)NC(=O)[C@@H](NC(=O)[C@H](CCC(=O)O)NC(=O)[C@@H](NC(=O)[C@H](CCCCN)NC(=O)[C@H](C)NC(=O)[C@@H](NC(=O)[C@H](CCCCN)NC(=O)[C@@H](NC(=O)[C@H](CC(N)=O)NC(=O)[C@H](CCC(N)=O)NC(=O)[C@H](CC(N)=O)NC(=O)[C@H](C)NC(=O)[C@H](CCC(=O)O)NC(=O)[C@H](Cc1ccccc1)NC(=O)[C@@H](NC(=O)[C@H](C)NC(=O)[C@H](CCC(=O)O)NC(=O)[C@H](CC(C)C)NC(=O)[C@H](CCC(N)=O)NC(=O)[C@@H](N)CCCCN)C(C)C)[C@@H](C)O)[C@@H](C)O)[C@@H](C)CC)[C@@H](C)CC)C(=O)N[C@@H](CC(=O)O)C(=O)NCC(=O)N[C@@H](CC(C)C)C(=O)N[C@@H](CCC(=O)O)C(=O)N[C@H](C(=O)N[C@@H](CCCCN)C(=O)O)C(C)C [DP II-22.2] (H-KQLEAVFEANQNTKTAKIEIKASIDGLEVK-OH) |  |  | stability improved substantially | solubility did not reach the standard | 
6 | CC[C@H](C)[C@H](NC(=O)[C@H](CCC(=O)O)NC(=O)[C@@H](NC(=O)[C@H](CCCCN)NC(=O)[C@H](C)NC(=O)[C@@H](NC(=O)[C@H](CCCCN)NC(=O)[C@@H](NC(=O)[C@H](CC(N)=O)NC(=O)[C@H](CCC(N)=O)NC(=O)[C@H](CC(N)=O)NC(=O)[C@H](C)NC(=O)[C@H](CCC(=O)O)NC(=O)[C@H](Cc1ccccc1)NC(=O)[C@@H](NC(=O)[C@H](C)NC(=O)[C@H](CCC(=O)O)NC(=O)[C@H](CC(C)C)NC(=O)[C@H](CCC(N)=O)NC(=O)[C@H](CCCCN)NC(=O)[C@@H](N)CC(=O)O)C(C)C)[C@@H](C)O)[C@@H](C)O)[C@@H](C)CC)C(=O)N[C@@H](CCCCN)C(=O)N[C@@H](C)C(=O)N[C@@H](CO)C(=O)N[C@H](C(=O)N[C@@H](CC(=O)O)C(=O)N[C@@H](CCC(=O)O)C(=O)O)[C@@H](C)CC [DP II-22.5] (H-DKQLEAVFEANQNTKTAKIEIKASIDE-OH; N-terminus and C-terminus assumed) |  |  |  | very soluble | 
7 | CC[C@H](C)[C@H](NC(=O)[C@H](CO)NC(=O)[C@H](C)NC(=O)[C@H](CCCCN)NC(=O)[C@@H](NC(=O)[C@H](CCC(=O)O)NC(=O)[C@@H](NC(=O)[C@H](CCCCN)NC(=O)[C@H](C)NC(=O)[C@@H](NC(=O)[C@H](CCCCN)NC(=O)[C@@H](NC(=O)[C@H](CC(N)=O)NC(=O)[C@H](CCC(N)=O)NC(=O)[C@H](CC(N)=O)NC(=O)[C@H](C)NC(=O)[C@H](CCC(=O)O)NC(=O)[C@H](Cc1ccccc1)NC(=O)[C@@H](NC(=O)[C@H](C)NC(=O)[C@H](CCC(=O)O)NC(=O)[C@H](CC(C)C)NC(=O)[C@H](CCC(N)=O)NC(=O)[C@H](CCCCN)NC(=O)[C@@H](N)CC(=O)O)C(C)C)[C@@H](C)O)[C@@H](C)O)[C@@H](C)CC)[C@@H](C)CC)C(=O)N[C@@H](CC(=O)O)C(=O)NCC(=O)N[C@@H](CC(C)C)C(=O)N[C@@H](CCC(=O)O)C(=O)N[C@H](C(=O)N[C@@H](CC(=O)O)C(=O)O)C(C)C [DP II-22.6] (H-DKQLEAVFEANQNTKTAKIEIKASIDGLEVD-OH) |  |  | stability improved substantially | solubility did not reach the standard | 
8 | CC(C)C[C@H](NC(=O)[C@H](CCC(=O)O)NC(=O)[C@H](CCCCN)NC(=O)[C@@H](N)CC(=O)O)C(=O)N[C@@H](CCC(=O)O)C(=O)N[C@@H](C)C(=O)N[C@H](C(=O)N[C@@H](Cc1ccccc1)C(=O)N[C@@H](CCC(=O)O)C(=O)N[C@@H](C)C(=O)N[C@@H](CC(N)=O)C(=O)N[C@@H](CCC(N)=O)C(=O)N[C@@H](CC(N)=O)C(=O)N[C@H](C(=O)N[C@@H](CCCCN)C(=O)N[C@H](C(=O)N[C@@H](C)C(=O)N[C@@H](CCCCN)C(=O)N[C@@H](C)C(=O)N[C@@H](CCC(=O)O)C(=O)O)[C@@H](C)O)[C@@H](C)O)C(C)C [DP II-22.14] (H-DKELEAVFEANQNTKTAKAE-OH; N-terminus and C-terminus assumed) | acceptable solution stability | > 3000 |  |  | 
9 | CC[C@H](C)[C@H](NC(=O)[C@H](CO)NC(=O)[C@H](C)NC(=O)[C@H](CCCCN)NC(=O)[C@@H](NC(=O)[C@H](CCC(=O)O)NC(=O)[C@@H](NC(=O)[C@H](CCCCN)NC(=O)[C@H](C)NC(=O)[C@@H](NC(=O)[C@H](CCCCN)NC(=O)[C@@H](NC(=O)[C@H](CC(N)=O)NC(=O)[C@H](CCC(N)=O)NC(=O)[C@H](CC(N)=O)NC(=O)[C@H](C)NC(=O)[C@H](CCC(=O)O)NC(=O)[C@H](Cc1ccccc1)NC(=O)[C@@H](NC(=O)[C@H](C)NC(=O)[C@H](CCC(=O)O)NC(=O)[C@H](CC(C)C)NC(=O)[C@@H](N)CCC(N)=O)C(C)C)[C@@H](C)O)[C@@H](C)O)[C@@H](C)CC)[C@@H](C)CC)C(=O)N[C@@H](CC(=O)O)C(=O)NCC(=O)N[C@@H](CC(C)C)C(=O)N[C@@H](CCC(=O)O)C(=O)N[C@H](C(=O)O)C(C)C [DP II-22] (H-QLEAVFEANQNTKTAKIEIKASIDGLEV-OH; N-terminus and C-terminus assumed) |  |  | stable | did not meet the “superior solubility” requirement of 3 mg/ml | nor did it meet the stability requirement
